Tests used:
[1] = tested on: Bovine Viral Diarrhoea Virus (BVDV), strain NADL; experiment: Antiviral fluorometric cytoproliferation assay against BVDV in BT turbinate cells; type: cell-based; conditions: fluvastatin alone 0.3125 μg/mL
Procedure: The Luo Han Guo extract was tested independently at a wide range of concentrations. The extract was tested in two assays, one at 100, 50, 25, 12.5 and 6.25 μg/mL and the other at 3600, 1200, 400, 133.3 and 44.4 μg/mL.
Bos taurus (BT) turbinate cells were used as host cells for the virus. After the cells were plated and allowed to grow overnight, The extract was added and then the virus was inoculated into the cultures. The cultures were allowed to grow for 7 days and then a fluorometric cytoproliferation assay was run. The data from all replicate cultures was averaged and compared to the growth of the negative controls (no virus or extract). The extract was present during absorption and in the media for the duration of the assays. A titration was run on the virus under the assay conditions but without the extract to determine the optimal viral inoculum for the antiviral assay. A dilution of 10^−4 of the stock virus was determined to be the correct inoculum for the antiviral assays. The growth medium used was Dulbecco's Minimum Eagle's Medium and 10% filtered horse serum. […]
The inhibition index was calculated as one minus the ratio of the average fluorescent units of the positive control to the average fluorescent units of infected cultures with a particular concentration of extract (1−(average positive control+average with extract)). […]

[2] = Water solubility (stated); type: physicochemical
H9 cells = experiment: Cytotoxicity control by microscopic inspection of cells; conditions: for Cytotoxicity (Appearance of cells): no virus
Excerpt: (§1) H9 cells were used as host cells for the virus. H9 is a human T cell clone selected for high yield permissive growth of HIV-1, cloned from Hut 78, a human T cell lymphoma cell line with an inducer/helper phenotype derived from the peripheral blood of a patient with Sezary Syndrome.
Cytotoxicity was judged from the microscopic inspection of the cells.

HIV-1 strain IIIB = experiment: HIV-1 p24 antigen capture ELISA antiviral assay in H9 cells; type: cell-based; conditions: for % Positive Control (HIV-1 p24): 7 days
Excerpt: as §1
The virus used was HIV-1, Strain IIIB, Catalog No 10-124-000, Lot No. 6M0008-DP.
A titration was run on the virus under the assay conditions without the experimental compounds to determine the viral inoculum for the antiviral assay, that is the lowest multiplicity of infection (MOI) that will infect all positive control cultures. The inoculum was approximately seven times the TCID50/mL of the stock virus.
1 mL cultures were plated with approximately 2.5×10^5 cells per culture. Four replicates were run for each assay condition.
The virus was absorbed onto the host cells in the presence of a reduced volume of culture medium for 2 hours. The inoculum was then washed off the cells with phosphate buffered saline. […] The growth medium used was RPMI 1640 with 10% fetal bovine serum and 50 μg/mL gentamicin.
The assay was run for 7 days and re-fed media with appropriate compound concentrations at 4 days.
The amount of virus proliferation was measured using an HIV-1 p24 antigen capture ELISA. At 7 days, supernatants were harvested and frozen. Supernatants were thawed and diluted as necessary, and the HIV-1 p24 ELISA assay was run. Excess supernatant was refrozen and held for 3 months. The HIV-1 p24 […] of replicate cultures were averaged and presented as a percentage of the positive control.
An inhibition index of zero indicated no efficacy. The closer to 1 the inhibition index was, the greater the efficacy.

Compound	Antiviral activity against BVDV [1]	Water solubility [2]	Cytotoxicity (Appearance of cells) (H9 cells; Mogroside V 2 μg/mL)	Cytotoxicity (Appearance of cells) (H9 cells; Mogroside V 6 μg/mL)	Cytotoxicity (Appearance of cells) (H9 cells; Mogroside V 12 μg/mL)	Cytotoxicity (Appearance of cells) (H9 cells; Mogroside V 36 μg/mL)	Cytotoxicity (Appearance of cells) (H9 cells; Mogroside V 100 μg/mL)	Cytotoxicity, as determined by microscopic inspection (H9 cells; entire range of concentrations used (2 to 100 μg/mL))	Concentration most effective against HIV-1 (HIV-1 strain IIIB) [µg/mL]	Efficacy (HIV-1 strain IIIB; Mogroside V 2 μg/mL)	% Positive Control (HIV-1 p24) (HIV-1 strain IIIB; Mogroside V 2 μg/mL) [%]	Effectiveness at suppressing HIV-1 replication (HIV-1 strain IIIB; Mogroside V 6 μg/mL) [%]	Efficacy (HIV-1 strain IIIB; Mogroside V 6 μg/mL)	% Positive Control (HIV-1 p24) (HIV-1 strain IIIB; Mogroside V 6 μg/mL) [%]	Efficacy (HIV-1 strain IIIB; Mogroside V 12 μg/mL)	% Positive Control (HIV-1 p24) (HIV-1 strain IIIB; Mogroside V 12 μg/mL) [%]	Efficacy (HIV-1 strain IIIB; Mogroside V 36 μg/mL)	% Positive Control (HIV-1 p24) (HIV-1 strain IIIB; Mogroside V 36 μg/mL) [%]	Efficacy (HIV-1 strain IIIB; Mogroside V 100 μg/mL)	% Positive Control (HIV-1 p24) (HIV-1 strain IIIB; Mogroside V 100 μg/mL) [%]
CC(C)n1c(/C=C/[C@H](O)C[C@H](O)CC(=O)O)c(-c2ccc(F)cc2)c2ccccc21 (racemic) [fluvastatin, 7-[3-(4-fluorophenyl)-1-(1-methylethyl)-1H-indol-2-yl]-3,5-dihydroxy-hept-6-enoic acid]	no antiviral activity	water soluble	–	–	–	–	–	–	–	–	–	–	–	–	–	–	–	–	–	–
C[C@H](CC[C@@H](O[C@@H]1O[C@H](CO[C@@H]2O[C@H](CO)[C@@H](O)[C@H](O)[C@H]2O)[C@@H](O)[C@H](O)[C@H]1O[C@@H]1O[C@H](CO)[C@@H](O)[C@H](O)[C@H]1O)C(C)(C)O)[C@H]1CC[C@@]2(C)[C@@H]3CC=C4[C@@H](CC[C@H](O[C@@H]5O[C@H](CO[C@@H]6O[C@H](CO)[C@@H](O)[C@H](O)[C@H]6O)[C@@H](O)[C@H](O)[C@H]5O)C4(C)C)[C@]3(C)[C@H](O)C[C@]12C [Mogroside V, mogroside V]	–	–	Normal	Normal	Normal	Normal	Normal	no cytotoxicity	6	Partial (partially efficacious if cultures had an inhibition index between 0.20 and 0.89)	48	~80	Partial (partially efficacious if cultures had an inhibition index between 0.20 and 0.89)	21	Partial (partially efficacious if cultures had an inhibition index between 0.20 and 0.89)	34	Partial (partially efficacious if cultures had an inhibition index between 0.20 and 0.89)	59	None (as having no efficacy if cultures had an inhibition index of less than 0.20)	88

— US20150231190A1, “COMPOSITIONS COMPRISING SIRAITIA GROSVENORI EXTRACTS AND METHODS FOR THE TREATMENT OF INFECTION” (Cascade Estates Limited, priority 2007, published 2015)
